From patent US20240408126A1, “BACTERIAL CAPSULAR OLIGOSACCHARIDE DERIVATIVE, PREPARATION METHOD THEREFOR, PHARMACEUTICAL COMPOSITION AND USE THEREOF” (PEKING UNIVERSITY, priority 2021, published 2024)

Columns and labels:
[1] = tested on: LPS-induced sepsis model; test: LPS-induced survival rate in sepsis model of mice; assay type: in vivo, male C57BL/6 mice; conditions: three times, LPS 45 mg/kg, after 72 hours, model group 40%
Protocol: A total of 60 male C57BL/6 mice aged 6-8 weeks, weighing 20±2 g, were selected. The mice were placed in a feeding room with temperature of 20-24° C. and humidity of 50%-60%, and were allowed to drink and eat freely. They were adaptively raised for 7 days before the experiment.
The mice were randomly divided into six groups: control group, model group, CP-1 high dose group (30 mg/kg), CP-1 middle dose group (10 mg/kg), CP-1 low dose group (3 mg/kg), and dexamethasone group, with 10 mice in each group. CP-1 high-dose group was intraperitoneally injected with 200 μL CP-1 solution at the concentration of 30 mg/kg, CP-1 middle-dose group was intraperitoneally injected with equal volume of CP-1 solution at the concentration of 10 mg/kg, CP-1 low-dose group was intraperitoneally injected with equal volume of CP-1 solution at the concentration of 3 mg/kg, dexamethasone group was intraperitoneally injected with equal volume of dexamethasone solution at the concentration of 30 mg/kg, and control group was intraperitoneally injected with equal volume of 0.9% normal saline. Except for the control group, all groups were intraperitoneally injected with 200 μL of LPS solution at 45 mg/kg for modeling. Each group was administered once for a total of three times, 48 hours and 24 hours before modeling, and 30 minutes after modeling. After administration, the state and survival rate of mice were observed and recorded every 6 hours for 72 hours.

[2] = tested on: LPS-induced inflammatory factors in serum; test: LPS-induced cytokines in serum of sepsis mouse model (CP-Me); assay type: in vivo, male C57BL/6 mice; conditions: 10 mg/kg and 3 mg/kg intraperitoneal, two times; LPS 25 mg/kg; serum after 12 hours; IL-1β, IL-6, TNF-α; FIG. 7
Protocol: A total of 24 male C57BL/6 mice aged 6-8 weeks, weighing 20±2 g, were selected. The mice were placed in a feeding room with temperature of 20-24° C. and humidity of 50%-60%, and were allowed to drink and eat freely. They were adaptively raised for 7 days before the experiment. Mice were randomly divided into four groups: control group, CP-Me group, LPS group and LPS+CP-Me group, with 6 mice in each group. CP-Me 10 mg/kg group and CP-Me 3 mg/kg group were intraperitoneally injected with 200 μL CP-Me solution at the concentrations of 10 mg/kg and 3 mg/kg, while the control group and LPS group were intraperitoneally injected with equal volume of 0.9% normal saline. LPS group was injected intraperitoneally with 200 μL LPS solution at 25 mg/kg for modeling. Each group was administered once for a total of two times, 12 hours before modeling and 30 minutes after modeling. After 12 hours of administration, the mice were anesthetized and blood was taken from the heart. After the blood stood for 2 hours, it was centrifuged at 5000 rpm for 10 minutes to collect serum. According to the instructions of Elisa kit, the absorbance of each hole was detected by using a multifunctional enzyme-labeled instrument at the wavelength of 450 nm, and the contents of cytokines IL-1β, IL-6, and TNF-α were calculated according to the standard curve.

| Compound | survival rate of mice ([1]; 3 mg/kg (low dose) intraperitoneal) [%] | survival rate of mice ([1]; 10 mg/kg (middle dose) intraperitoneal) [%] | survival rate of mice ([1]; 30 mg/kg intraperitoneal) [%] | effect on LPS-induced inflammatory factors in serum [2] |
| --- | --- | --- | --- | --- |
| CC(=O)NC1[C@H](OC2[C@@H](O[C@@H]3C(NC(C)=O)C(O)OC(CO)[C@@H]3O)OC(C(=O)O)[C@H](O)[C@@H]2O)OC(CO)[C@@H](O)[C@@H]1O[C@@H]1OC(C(=O)O)[C@@H](O)[C@H](O)C1O (stereo partly drawn) [CP-1, β-D-glucopyranuronic acid-(1→3)-2-deoxy-2-acetylamino-β-D-glucopyranosyl-(1→2)-α-D-galactopyranoic acid-(1→3)-2-deoxy-2-acetylamino-α,β-D-galactopyranoside] | 70 | 80 | 70 |  |
| CO[C@@H]1OC(CO)[C@H](O)C(O[C@H]2OC(C(=O)O)[C@H](O)C(O)C2O[C@@H]2OC(CO)[C@@H](O)C(O[C@@H]3OC(C(=O)O)[C@@H](O)C(O)C3O)C2NC(C)=O)C1NC(C)=O (stereo partly drawn) [CP-Me, methyl β-D-glucopyranuronic acid-(1→3)-2-deoxy-2-acetylamino-β-D-glucopyranosyl-(1→2)-α-D-galactopyranoic acid-(1→3)-2-deoxy-2-acetylamino-α,β-D-galactopyranoside] |  |  |  | inhibitory effect |
| C[C@@H]1C[C@H]2[C@@H]3CCC4=CC(=O)C=C[C@]4(C)[C@@]3(F)[C@@H](O)C[C@]2(C)[C@@]1(O)C(=O)CO [dexamethasone, reference compound] |  |  | 60 |  |
